Drawing on publication PMC7998309, “Structural-Based Optimizations of the Marine-Originated Meridianin C as Glucose Uptake Agents by Inhibiting GSK-3β” (Marine Drugs, 2021), this text covers CC50 and melting point for 30 compounds.

Data set [1] in a line: MTT assay for cell viability (cytotoxicity). It is filed as cell-based, human. The settings on record: human; HepG2 cells, 48 h incubation, MTT. The protocol: The hepatocyte cell line HepG2 cells obtained from the Type Culture Collection of the Chinese Academy of Sciences (Shanghai, China) were maintained in high-glucose DMEM (Gibco) supplemented with 10% fetal bovine serum (FBS) and 1% penicillin-streptomycin in an atmosphere of 5% CO2 at 37 °C.
Into a 96-well plate, 1 × 10^3 HepG2 cells per well were seeded. After 24 h, stock solutions of test compounds in DMSO were diluted in DMEM to ≤0.1% final DMSO concentration. Cells were treated with various concentrations (2.5–25 µM) of tested compounds for 48 h, and the MTT solution (0.5 mg/mL) was added. After 4 h of incubation at 37 °C for MTT-formazan formation, the supernatant was discarded and 100 µL of DMSO was applied into each well to dissolve formazan crystals. Absorbance at 490 nm was determined spectrophotometrically by using a microplate reader (Epoch, BioTek Instruments, Inc., Winooski, VT, USA).
On the technique in general: Tetrazolium dyes change colour on reduction, which living cells bring about.

Turning to `CCC(=O)Nc1ccc(-c2cnc(N)nc2-c2c[nH]c3ccc(Br)cc23)cc1` [A1, N-(4-(2-amino-4-(5-bromo-1H-indol-3-yl)pyrimidin-5-yl)phenyl) Propionamide], the melting point lay within 193.6 to 194.2 °C. For the same compound, it took 16.7 µM to reach half-maximal cytotoxicity in data set [1] (CC50 at 48 h).
The like results for `CCCC(=O)Nc1ccc(-c2cnc(N)nc2-c2c[nH]c3ccc(Br)cc23)cc1` [A2, N-(4-(2-amino-4-(5-bromo-1H-indol-3-yl)pyrimidin-5-yl)phenyl) Butyramide] were, in that order, 187.6 to 188.3 °C and greater than 25 µM.
The compound `CC(C)C(=O)Nc1ccc(-c2cnc(N)nc2-c2c[nH]c3ccc(Br)cc23)cc1` [A3, N-(4-(2-amino-4-(5-bromo-1H-indol-3-yl)pyrimidin-5-yl)phenyl) Isobutyramide] registered a melting point of 172.6 to 173.3 °C. For the same compound, in data set [1], the CC50 at 48 h was 10.8 µM.
In turn, `CC(C)(C)C(=O)Nc1ccc(-c2cnc(N)nc2-c2c[nH]c3ccc(Br)cc23)cc1` [A4, N-(4-(2-amino-4-(5-bromo-1H-indol-3-yl)pyrimidin-5-yl)phenyl) Pivalamide] registered a melting point of 139.6 to 140.3 °C. Besides, in data set [1], the midpoint of cytotoxicity, the CC50 at 48 h, lay at 11.9 µM.
`Nc1ncc(-c2ccc(NC(=O)Cc3ccccc3)cc2)c(-c2c[nH]c3ccc(Br)cc23)n1` [A5, N-(4-(2-amino-4-(5-bromo-1H-indol-3-yl)pyrimidin-5-yl)phenyl)-2-phenylacetamide] came in with a melting point of 207.6 to 208.4 °C. In data set [1], this compound yielded a CC50 at 48 h of 20.9 µM.
The matching figures for `Nc1ncc(-c2ccc(NC(=O)c3ccccc3)cc2)c(-c2c[nH]c3ccc(Br)cc23)n1` [A6, N-(4-(2-amino-4-(5-bromo-1H-indol-3-yl)pyrimidin-5-yl)phenyl) Benzamide]: 187.9 to 188.6 °C and 12.5 µM.
The matching figures for `Nc1ncc(-c2ccc(NC(=O)c3ccccc3F)cc2)c(-c2c[nH]c3ccc(Br)cc23)n1` [A7, N-(4-(2-amino-4-(5-bromo-1H-indol-3-yl)pyrimidin-5-yl)phenyl)-2-fluorobenzamide]: 159.6 to 160.4 °C and 18.1 µM.
The like results for `Nc1ncc(-c2ccc(NC(=O)c3cccc(F)c3)cc2)c(-c2c[nH]c3ccc(Br)cc23)n1` [A8, N-(4-(2-amino-4-(5-bromo-1H-indol-3-yl)pyrimidiN-5-yl)phenyl)-3-fluorobenzamide] were, in that order, 183.6 to 184.3 °C and 6.8 µM.
`Nc1ncc(-c2ccc(NC(=O)c3ccc(F)cc3)cc2)c(-c2c[nH]c3ccc(Br)cc23)n1` [A9, N-(4-(2-amino-4-(5-bromo-1H-indol-3-yl)pyrimidin-5-yl)phenyl)-4-fluorobenzamide] returned a melting point of 178.6 to 179.4 °C. The compound also returned a CC50 at 48 h in data set [1] of 6 µM.
On to `Nc1ncc(-c2ccc(NC(=O)c3ccccc3Cl)cc2)c(-c2c[nH]c3ccc(Br)cc23)n1` [A10, N-(4-(2-amino-4-(5-bromo-1H-indol-3-yl)pyrimidin-5-yl)phenyl)-2-chlorobenzamide], for which the melting point is 211.5 to 212.4 °C. In data set [1], this compound gave a CC50 at 48 h of 18.4 µM.
The matching figures for `Nc1ncc(-c2ccc(NC(=O)c3cccc(Cl)c3)cc2)c(-c2c[nH]c3ccc(Br)cc23)n1` [A11, N-(4-(2-amino-4-(5-bromo-1H-indol-3-yl)pyrimidin-5-yl)phenyl)-3-chlorobenzamide]: 204.8 to 205.2 °C and 18.5 µM.
For the compound `Nc1ncc(-c2ccc(NC(=O)c3ccc(Cl)cc3)cc2)c(-c2c[nH]c3ccc(Br)cc23)n1` [A12, N-(4-(2-amino-4-(5-bromo-1H-indol-3-yl)pyrimidin-5-yl)phenyl)-4-chlorobenzamide], the melting point fell in the range of 261.7 to 262.5 °C. Further, it took 7.5 µM to reach half-maximal cytotoxicity in data set [1] (CC50 at 48 h).
Regarding `Nc1ncc(-c2ccc(NC(=O)c3cccc(Br)c3)cc2)c(-c2c[nH]c3ccc(Br)cc23)n1` [A14, N-(4-(2-amino-4-(5-bromo-1H-indol-3-yl)pyrimidin-5-yl)phenyl)-3-bromobenzamide], the melting point lay in the range of 176.6 to 177.3 °C. The compound also had a CC50 at 48 h in data set [1] greater than 25 µM.
The like results for `Nc1ncc(-c2ccc(NC(=O)c3ccc(Br)cc3)cc2)c(-c2c[nH]c3ccc(Br)cc23)n1` [A15, N-(4-(2-amino-4-(5-bromo-1H-indol-3-yl)pyrimidin-5-yl)phenyl)-4-bromobenzamide] were, in that order, 276.4 to 277.3 °C and 7.1 µM.
Turning to `Nc1ncc(-c2ccc(NC(=O)c3ccccc3C(F)(F)F)cc2)c(-c2c[nH]c3ccc(Br)cc23)n1` [A16, N-(4-(2-amino-4-(5-bromo-1H-indol-3-yl)pyrimidin-5-yl)phenyl)-2-(trifluoromethyl) Benzamide], the melting point is 163.6 to 164.3 °C. In data set [1], this compound displayed a CC50 at 48 h of 9.9 µM.
In the case of `Nc1ncc(-c2ccc(NC(=O)c3cccc(C(F)(F)F)c3)cc2)c(-c2c[nH]c3ccc(Br)cc23)n1` [A17, N-(4-(2-amino-4-(5-bromo-1H-indol-3-yl)pyrimidin-5-yl)phenyl)-3-(trifluoromethyl) Benzamide], the melting point was in the range of 172.6 to 173.3 °C. In data set [1], this compound came in with a CC50 at 48 h of 14.3 µM.
The like results for `Nc1ncc(-c2ccc(NC(=O)c3ccc(C(F)(F)F)cc3)cc2)c(-c2c[nH]c3ccc(Br)cc23)n1` [A18, N-(4-(2-amino-4-(5-bromo-1H-indol-3-yl)pyrimidin-5-yl)phenyl)-4-(trifluoromethyl) Benzamide] were, in that order, 312.7 to 313.4 °C and 4.2 µM.
The matching figures for `Cc1ccccc1C(=O)Nc1ccc(-c2cnc(N)nc2-c2c[nH]c3ccc(Br)cc23)cc1` [A19, N-(4-(2-amino-4-(5-bromo-1H-indol-3-yl)pyrimidin-5-yl)phenyl)-2-methylbenzamide]: 170.7 to 171.6 °C and 10.3 µM.
The matching figures for `Cc1cccc(C(=O)Nc2ccc(-c3cnc(N)nc3-c3c[nH]c4ccc(Br)cc34)cc2)c1` [A20, N-(4-(2-amino-4-(5-bromo-1H-indol-3-yl)pyrimidin-5-yl)phenyl)-3-methylbenzamide]: 211.8 to 212.9 °C and 13.2 µM.
The compound `COc1ccccc1C(=O)Nc1ccc(-c2cnc(N)nc2-c2c[nH]c3ccc(Br)cc23)cc1` [A22, N-(4-(2-amino-4-(5-bromo-1H-indol-3-yl)pyrimidin-5-yl)phenyl)-2-methoxybenzamide] had a melting point of 154.9 to 155.6 °C. The compound also had a CC50 at 48 h in data set [1] greater than 25 µM.
The like results for `COc1cccc(C(=O)Nc2ccc(-c3cnc(N)nc3-c3c[nH]c4ccc(Br)cc34)cc2)c1` [A23, N-(4-(2-amino-4-(5-bromo-1H-indol-3-yl)pyrimidin-5-yl)phenyl)-3-methoxybenzamide] were, in that order, 172.6 to 173.3 °C and 14.7 µM.
Turning to `COc1ccc(C(=O)Nc2ccc(-c3cnc(N)nc3-c3c[nH]c4ccc(Br)cc34)cc2)cc1` [A24, N-(4-(2-amino-4-(5-bromo-1H-indol-3-yl)pyrimidin-5-yl)phenyl)-4-methoxybenzamide], the melting point lay in the range of 184.6 to 185.3 °C. This compound displayed a CC50 at 48 h in data set [1] of 4.3 µM.
For `Nc1ncc(-c2ccc(NC(=O)c3cc(F)ccc3F)cc2)c(-c2c[nH]c3ccc(Br)cc23)n1` [A25, N-(4-(2-amino-4-(5-bromo-1H-indol-3-yl)pyrimidin-5-yl)phenyl)-2,5-difluorobenzamide], the melting point fell in the range of 163.5 to 164.3 °C. This compound gave a CC50 at 48 h in data set [1] of 8.9 µM.
The like results for `Nc1ncc(-c2ccc(NC(=O)c3cccs3)cc2)c(-c2c[nH]c3ccc(Br)cc23)n1` [A27, N-(4-(2-amino-4-(5-bromo-1H-indol-3-yl)pyrimidin-5-yl)phenyl) thiophene-2-carboxamide] were, in that order, 303.8 to 304.4 °C and 10 µM.
The like results for `Nc1ncc(-c2ccc(NC(=O)c3cc4ccccc4cn3)cc2)c(-c2c[nH]c3ccc(Br)cc23)n1` [A28, N-(4-(2-amino-4-(5-bromo-1H-indol-3-yl)pyrimidin-5-yl)phenyl) isoquinoline-3-carboxamide] were, in that order, 189.3 to 190.2 °C and greater than 25 µM.
`Nc1ncc(-c2ccc(NC(=O)c3ccc4ccccc4c3)cc2)c(-c2c[nH]c3ccc(Br)cc23)n1` [A29, N-(4-(2-amino-4-(5-bromo-1H-indol-3-yl)pyrimidin-5-yl)phenyl)-2-naphthamide] had a melting point of 189.3 to 190.2 °C. Moreover, the 50% cytotoxic concentration (CC50) at 48 h in data set [1] is greater than 25 µM.
The matching figures for `Clc1cccc(Nc2nccc(-c3c[nH]c4ccc(Br)cc34)n2)c1` [B5, 4-(5-Bromo-1H-indol-3-yl)-N-(3-chlorophenyl) pyrimidin-2-amine]: 210.3 to 211.4 °C and greater than 25 µM.
As for `Brc1cccc(Nc2nccc(-c3c[nH]c4ccc(Br)cc34)n2)c1` [B8, 4-(5-Bromo-1H-indol-3-yl)-N-(3-bromophenyl) pyrimidin-2-amine], the melting point fell in the range of 214.8 to 215.6 °C. The same compound displayed a cytotoxic concentration (CC50) at 48 h in data set [1] of 18.7 µM.
The like results for `FC(F)(F)c1cccc(Nc2nccc(-c3c[nH]c4ccc(Br)cc34)n2)c1` [B11, 4-(5-Bromo-1H-indol-3-yl)-N-(3-(trifluoromethyl)phenyl) pyrimidin-2-amine] were, in that order, 171.8 to 172.3 °C and 17.6 µM.
The matching figures for `FC(F)(F)c1ccc(Nc2nccc(-c3c[nH]c4ccc(Br)cc34)n2)cc1` [B12, 4-(5-Bromo-1H-indol-3-yl)-N-(4-(trifluoromethyl)phenyl) pyrimidin-2-amine]: 279.5 to 280.3 °C and greater than 25 µM.

As usually defined, the CC50 is the concentration that lowers cell viability or growth by half. High values mean lower toxicity to the cells, low ones greater toxicity to the cells. Usually melting point stands for the temperature of the solid-liquid transition.
